The target in test [1] is PI3Kγ (p110γ) Recombinant Human Protein (Homo sapiens (Human), UniProt P48736). The test can be described thus: PI3K-γ scintillation proximity assay. The class given is biochemical. Particulars: 2 μM ATP, 20 μM PIP2. (In a scintillation proximity assay essentially only radioactivity close to the scintillant gives light.)
The target in test [2] is PI3Kδ (p110δ/p85α) Recombinant Human Protein (Homo sapiens (Human), UniProt O00329). The test can be described thus: PI3Kδ scintillation proximity assay. The class given is biochemical. Particulars: 2 μM ATP, 20 μM PIP2.
For test [3], the system named is Phosphorylated Ribosomal Protein S6 (RPS6) in THP-1 cells. As to the kind of experiment: THP-1 RPS6 ELISA assay. The class given is cell-based, human. The settings on record: Homo sapiens, THP-1, THP-1 cells, 10 nM MCP-1; read-out: PI3Kγ_THP1_RPS6_ELISA IC50.

Structures can show the parent of a compound that is named as a salt.

For orientation: IC50 means the concentration needed to halve the response being measured.

Chain of PI3Kγ (p110γ) Recombinant Human Protein (P48736 whole entry): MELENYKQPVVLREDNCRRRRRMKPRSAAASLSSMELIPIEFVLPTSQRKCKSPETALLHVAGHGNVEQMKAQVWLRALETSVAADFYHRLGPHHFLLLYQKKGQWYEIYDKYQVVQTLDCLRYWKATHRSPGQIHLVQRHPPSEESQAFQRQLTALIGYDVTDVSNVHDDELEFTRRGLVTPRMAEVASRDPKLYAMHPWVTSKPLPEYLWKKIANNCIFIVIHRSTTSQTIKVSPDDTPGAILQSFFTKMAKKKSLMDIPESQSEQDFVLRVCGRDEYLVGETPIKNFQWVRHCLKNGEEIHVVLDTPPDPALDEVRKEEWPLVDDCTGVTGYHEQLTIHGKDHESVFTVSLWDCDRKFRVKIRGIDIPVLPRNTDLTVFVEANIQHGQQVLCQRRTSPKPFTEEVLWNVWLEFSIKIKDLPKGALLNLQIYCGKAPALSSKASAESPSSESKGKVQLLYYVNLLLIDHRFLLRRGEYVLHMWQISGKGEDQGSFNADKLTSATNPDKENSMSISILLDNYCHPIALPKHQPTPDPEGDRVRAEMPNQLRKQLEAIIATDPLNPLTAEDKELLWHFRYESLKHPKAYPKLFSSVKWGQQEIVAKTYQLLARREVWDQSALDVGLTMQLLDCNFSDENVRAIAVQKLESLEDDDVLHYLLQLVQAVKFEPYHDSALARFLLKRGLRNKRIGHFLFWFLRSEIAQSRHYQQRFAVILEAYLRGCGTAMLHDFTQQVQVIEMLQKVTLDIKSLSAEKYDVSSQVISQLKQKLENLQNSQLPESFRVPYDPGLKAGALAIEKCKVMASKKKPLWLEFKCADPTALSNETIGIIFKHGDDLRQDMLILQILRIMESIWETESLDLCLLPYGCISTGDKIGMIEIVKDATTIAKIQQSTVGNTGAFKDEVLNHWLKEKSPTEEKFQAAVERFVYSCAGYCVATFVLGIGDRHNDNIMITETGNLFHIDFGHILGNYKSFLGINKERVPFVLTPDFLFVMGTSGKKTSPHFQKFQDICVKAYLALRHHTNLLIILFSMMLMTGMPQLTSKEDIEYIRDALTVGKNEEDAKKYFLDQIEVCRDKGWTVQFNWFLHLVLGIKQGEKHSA
Chain of PI3Kδ (p110δ/p85α) Recombinant Human Protein (O00329 whole entry): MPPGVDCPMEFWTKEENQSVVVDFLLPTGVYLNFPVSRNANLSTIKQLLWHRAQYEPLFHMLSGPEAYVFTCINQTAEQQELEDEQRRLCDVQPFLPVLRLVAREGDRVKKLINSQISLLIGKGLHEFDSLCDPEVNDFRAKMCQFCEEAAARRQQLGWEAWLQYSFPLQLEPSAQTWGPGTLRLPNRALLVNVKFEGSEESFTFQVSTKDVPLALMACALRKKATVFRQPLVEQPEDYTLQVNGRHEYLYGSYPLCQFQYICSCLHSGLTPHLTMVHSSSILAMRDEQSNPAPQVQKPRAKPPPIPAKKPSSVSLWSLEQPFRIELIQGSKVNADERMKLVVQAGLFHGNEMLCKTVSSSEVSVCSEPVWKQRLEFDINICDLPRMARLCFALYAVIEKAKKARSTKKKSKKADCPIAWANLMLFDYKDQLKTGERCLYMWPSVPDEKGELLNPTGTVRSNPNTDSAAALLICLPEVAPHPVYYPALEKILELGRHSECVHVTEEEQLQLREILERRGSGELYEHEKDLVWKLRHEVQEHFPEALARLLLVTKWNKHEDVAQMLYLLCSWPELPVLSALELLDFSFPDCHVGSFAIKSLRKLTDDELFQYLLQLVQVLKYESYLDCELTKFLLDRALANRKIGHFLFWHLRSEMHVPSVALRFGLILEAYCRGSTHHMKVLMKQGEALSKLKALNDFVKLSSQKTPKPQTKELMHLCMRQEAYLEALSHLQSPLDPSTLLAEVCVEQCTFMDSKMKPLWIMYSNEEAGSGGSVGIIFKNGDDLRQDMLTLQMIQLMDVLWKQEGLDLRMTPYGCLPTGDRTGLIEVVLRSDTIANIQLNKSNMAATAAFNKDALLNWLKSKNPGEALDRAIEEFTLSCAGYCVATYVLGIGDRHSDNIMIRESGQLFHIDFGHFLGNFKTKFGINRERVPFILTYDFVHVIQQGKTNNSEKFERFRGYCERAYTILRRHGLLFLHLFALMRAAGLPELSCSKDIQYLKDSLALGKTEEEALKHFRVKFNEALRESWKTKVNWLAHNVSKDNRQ
Chain of PI3Kδ (p110δ/p85α) Recombinant Human Protein (P27986 whole entry partner): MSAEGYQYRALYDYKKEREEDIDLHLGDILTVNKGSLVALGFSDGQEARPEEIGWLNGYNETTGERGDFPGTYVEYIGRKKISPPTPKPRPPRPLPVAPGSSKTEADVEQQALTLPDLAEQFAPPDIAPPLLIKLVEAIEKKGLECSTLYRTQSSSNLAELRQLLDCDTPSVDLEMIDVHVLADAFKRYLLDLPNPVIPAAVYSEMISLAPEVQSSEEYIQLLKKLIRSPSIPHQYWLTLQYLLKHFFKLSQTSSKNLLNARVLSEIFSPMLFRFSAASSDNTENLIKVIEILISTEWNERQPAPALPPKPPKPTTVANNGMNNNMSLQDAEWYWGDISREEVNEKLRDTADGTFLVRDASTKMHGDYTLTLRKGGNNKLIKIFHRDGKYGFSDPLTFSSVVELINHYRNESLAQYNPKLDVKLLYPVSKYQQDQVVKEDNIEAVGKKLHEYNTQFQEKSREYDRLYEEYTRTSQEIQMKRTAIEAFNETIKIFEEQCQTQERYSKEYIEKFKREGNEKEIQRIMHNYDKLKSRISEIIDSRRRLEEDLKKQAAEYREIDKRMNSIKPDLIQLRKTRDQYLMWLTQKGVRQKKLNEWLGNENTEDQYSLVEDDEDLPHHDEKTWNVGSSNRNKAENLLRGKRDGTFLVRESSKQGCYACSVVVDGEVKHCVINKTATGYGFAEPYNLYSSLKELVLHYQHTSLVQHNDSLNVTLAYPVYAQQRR

As for `CC(NC(=O)c1c(N)nn2cccnc12)c1cc(Cl)c2cncn2c1-c1cc[nH]n1` (racemic) [Example 130, 2-Amino-N-{1-[8-chloro-5-(1H-pyrazol-3-yl)imidazo[1,5-a]pyridin-6-yl]ethyl}pyrazolo[1,5-a]pyrimidine-3-carboxamide trifluoroacetate salt], the IC50 in test [1] was below 100 nM; in test [2], below 500 nM; in test [3] it was below 500 nM.
Take `CC(NC(=O)c1c(N)nn2cccnc12)c1cc(Cl)c2cncn2c1-c1cncc(S(C)(=O)=O)c1` (racemic) [Example 131, 2-Amino-N-(1-{8-chloro-5-[5-(methylsulfonyl)pyridin-3-yl]imidazo[1,5-a]pyridin-6-yl}ethyl)pyrazolo[1,5-a]pyrimidine-3-carboxamide trifluoroacetate salt]: the IC50 in test [1] is below 100 nM; in test [2] it was below 100 nM; in test [3] it was below 500 nM.
In the case of `CC(NC(=O)c1c(N)nn2cccnc12)c1cc(Cl)c2cncn2c1-c1ccccn1` (racemic) [Example 133, 2-Amino-N-[1-(8-chloro-5-pyridin-2-ylimidazo[1,5-a]pyridin-6-yl)ethyl]pyrazolo[1,5-a]pyrimidine-3-carboxamide trifluoroacetate salt], the figures for the IC50 in test [1], in test [2] and in test [3] were below 100 nM, below 500 nM and below 500 nM, respectively.
With `CNS(=O)(=O)c1ccc(-c2c(C(C)NC(=O)c3c(N)nn4cccnc34)cc(Cl)c3cncn23)cc1` (racemic) [Example 135, 2-Amino-N-[1-(8-chloro-5-{4-[(methylamino)sulfonyl]phenyl}imidazo[1,5-a]pyridin-6-yl)ethyl]pyrazolo[1,5-a]pyrimidine-3-carboxamide trifluoroacetate salt], the IC50 in test [1] was below 100 nM; in test [2], below 500 nM; in test [3], above 1000 nM.
As for `CC(NC(=O)c1c(N)nn2cccnc12)c1cc(Cl)c2cncn2c1-c1ccc(S(C)(=O)=O)cc1` (racemic) [Example 136, 2-Amino-N-(1-{8-chloro-5-[4-(methylsulfonyl)phenyl]imidazo[1,5-a]pyridin-6-yl}ethyl)pyrazolo[1,5-a]pyrimidine-3-carboxamide trifluoroacetate salt], the IC50 was below 100 nM in test [1], below 500 nM in test [2] and above 1000 nM in test [3].
Turning to `CC(NC(=O)c1c(N)nn2cccnc12)c1cc(Cl)c2cncn2c1-c1cncc(C#N)c1` (racemic) [Example 137, 2-Amino-N-{1-[8-chloro-5-(5-cyanopyridin-3-yl)imidazo[1,5-a]pyridin-6-yl]ethyl}pyrazolo[1,5-a]pyrimidine-3-carboxamide trifluoroacetate salt], the IC50 was below 100 nM in test [1], below 100 nM in test [2] and below 500 nM in test [3].
In the case of `CC(NC(=O)c1c(N)nn2cccnc12)c1cc(Cl)c2cncn2c1-c1cnccn1` (racemic) [Example 138, 2-Amino-N-[1-(8-chloro-5-pyrazin-2-ylimidazo[1,5-a]pyridin-6-yl)ethyl]pyrazolo[1,5-a]pyrimidine-3-carboxamide trifluoroacetate salt], the figures for the IC50 in test [1], in test [2] and in test [3] were below 100 nM, below 500 nM and below 1000 nM, respectively.
On the same counts, the results for `CC(NC(=O)c1c(N)nn2cccnc12)c1cc(Cl)c2cncn2c1-c1cn[nH]c1` (racemic) [Example 139, 2-Amino-N-{1-[8-chloro-5-(1H-pyrazol-4-yl)imidazo[1,5-a]pyridin-6-yl]ethyl}pyrazolo[1,5-a]pyrimidine-3-carboxamide trifluoroacetate salt] are below 100 nM, below 100 nM and below 500 nM.
For `CC(NC(=O)c1c(N)nn2cccnc12)c1cc(Cl)c2cncn2c1-c1cnn(C)c1` (racemic) [Example 140, 2-Amino-N-{1-[8-chloro-5-(1-methyl-1H-pyrazol-4-yl)imidazo[1,5-a]pyridin-6-yl]ethyl}pyrazolo[1,5-a]pyrimidine-3-carboxamide trifluoroacetate salt] the same measures were below 100 nM, below 100 nM and below 500 nM.
Take `CC(NC(=O)c1c(N)nn2cccnc12)c1cc(Cl)c2cncn2c1N1CCN(S(C)(=O)=O)CC1` (racemic) [Example 141, 2-Amino-N-(1-{8-chloro-5-[4-(methylsulfonyl)piperazin-1-yl]imidazo[1,5-a]pyridin-6-yl}ethyl)pyrazolo[1,5-a]pyrimidine-3-carboxamide trifluoroacetate salt]: the IC50 in test [1] is below 100 nM; in test [2], below 500 nM; in test [3] it was below 500 nM.
Consider `CC(NC(=O)c1c(N)nn2cccnc12)c1cc(Cl)c2cncn2c1N1CCCC1` (racemic) [Example 142, 2-Amino-N-[1-(8-chloro-5-pyrrolidin-1-ylimidazo[1,5-a]pyridin-6-yl)ethyl]pyrazolo[1,5-a]pyrimidine-3-carboxamide trifluoroacetate salt], for which the IC50 in test [1] is below 100 nM; in test [2], below 100 nM; in test [3], below 500 nM.
As for `COC1CCN(c2c(C(C)NC(=O)c3c(N)nn4cccnc34)cc(Cl)c3cncn23)CC1` (racemic) [Example 143, 2-Amino-N-{1-[8-chloro-5-(4-methoxypiperidin-1-yl)imidazo[1,5-a]pyridin-6-yl]ethyl}pyrazolo[1,5-a]pyrimidine-3-carboxamide], the values for the IC50 in test [1], in test [2] and in test [3] were below 100 nM, below 500 nM and below 1000 nM, respectively.
On the same counts, the results for `CC(NC(=O)c1c(N)nn2cccnc12)c1cc(Cl)c2cncn2c1N1CCOCC1` (racemic) [Example 145, 2-Amino-N-[1-(8-chloro-5-morpholin-4-ylimidazo[1,5-a]pyridin-6-yl)ethyl]pyrazolo[1,5-a]pyrimidine-3-carboxamide trifluoroacetate salt] are below 100 nM, below 100 nM and above 1000 nM.
On to `CC(NC(=O)c1c(N)nn2cccnc12)c1cc(Cl)c2cncn2c1N1CCC(O)CC1` (racemic) [Example 146, 2-Amino-N-{1-[8-chloro-5-(4-hydroxypiperidin-1-yl)imidazo[1,5-a]pyridin-6-yl]ethyl}pyrazolo[1,5-a]pyrimidine-3-carboxamide trifluoroacetate salt], for which the IC50 is below 100 nM in test [1], below 100 nM in test [2] and below 500 nM in test [3].
As to `CC(NC(=O)c1c(N)nn2cccnc12)c1cc(Cl)c2cncn2c1N1CCC(Br)CC1` (racemic) [Example 147, 2-Amino-N-{1-[5-(4-bromopiperidin-1-yl)-8-chloroimidazo[1,5-a]pyridin-6-yl]ethyl}pyrazolo[1,5-a]pyrimidine-3-carboxamide trifluoroacetate salt], the IC50 was below 100 nM in test [1], below 500 nM in test [2] and below 500 nM in test [3].
As to `CC(NC(=O)c1c(N)nn2cccnc12)c1cc(Cl)c2cncn2c1N1CCNS(=O)(=O)CC1` (racemic) [Example 149, 2-Amino-N-{1-[8-chloro-5-(1,1-dioxido-1,2,5-thiadiazepan-5-yl)imidazo[1,5-a]pyridin-6-yl]ethyl}pyrazolo[1,5-a]pyrimidine-3-carboxamide], the IC50 is below 100 nM in test [1], below 100 nM in test [2] and below 500 nM in test [3].
